Source: US20260055398A1, “IMPROVED POLYMER DEGRADING ENZYMES” (CAMBRIDGE ENTERPRISE LIMITED, priority 2022, published 2026)

B1: RR11O2: metagenomic-derived esterase with promiscuous activity on PET; amino acid SEQ ID NO. 4; PDB 6ZZV (protein)
chain: MSENMNRPLDYSQKANWYQIPEVTKEFDTFYVYATEYILSSMEEGAPDYADMENAEMLEGAAAEYMLHATAYADSTNVFMPYYRQVGLRYAGVVWKRDGIFDASVAGMPYGDIVAALDYYFEHYNNGRPFIIAGHSQGSAIIKMVLKKYFVEHPDYYKRMIAAYPIGYAFTKDEFKTYPHMKFATGECDTGVIITWNTEGPKNREVNADTCVLQPGSMSINPLNWKLDDTYAPASMNLGSLFPNKDTGKLEIQDLGADAQVFPDRGVVVTHAMGEEMTEETAKVAAEFFGPDGRHGEDYVLFYCNIKDNVAKRISAYMANRK
modifications: RR1102

How the values were obtained:
Assay type in all cases: biochemical
N20O1 = test: Kinetics of p-NP acyl ester hydrolysis by N20O1; conditions: 50 mM Tris-HCl pH 8.0, 0.3% (v/v) triton X-100, 22° C.
Experimental: The activity of all esterase hits was determined via hydrolysis of p-nitrophenol (p-NP) carboxylesterase by monitoring the release of p-nitrophenol. The amount of p-nitrophenol released was quantified by absorbance at 405 nm (εpNP=17,000 M−1.cm−1) using a Spectramax 190 microplate reader (Molecular Devices). Unless otherwise indicated, the measurements were performed at 22° C. in triplicate using 96-well plates with a final assay volume of 100 μL in 50 mM Tris-HCl pH 8.0 and 0.3% (v/v) triton X-100. The substrate specificity was investigated by measuring the hydrolysis of the following p-NP-fatty acyl esters: butyrate (C4), hexanoate (C6 from TCI Chemicals, H0484), octanoate (C8), decanoate (C10), dodecanoate (C12), myristate (C14) and palmitate (C16). The kinetic parameters for each substrate were obtained by non-linear regression of the data using the Michaelis-Menten equation: V=Vmax*[S]/(Km+[S]), where V is the rate, Vmax is the maximum rate achieved by the reaction, S is the substrate concentration, and Km is the Michaelis-Menten constant. The effect of the pH was evaluated by measuring the enzyme activity at pH 4.0 to 11.0 in 50 mM of the following buffers containing 0.3% (v/v) triton X-100: sodium citrate at pH 4.0, pH 5.0 and 6.0; phosphate at pH 6.0, 7.0, 8.0; Tris-HCl at pH 7.0, 8.0 and 9.0; N-cyclohexyl-3-aminopropanesulfonic acid (CAPS) at pH 9.5, 10.0, 11.0. […]

RR11O2 = test: Kinetics of p-NP acyl ester hydrolysis by RR11O2; conditions: 50 mM Tris-HCl pH 8.0, 0.3% (v/v) triton X-100, 22° C.
Experimental: (B) Detail of RR11O2's cavity (in blue) and the catalytic triad (in cyan) S149, D311 and H308. (C) The catalytic efficiencies of RR11O2 measured against p-NP acyl esters [acetate (C2), butyrate (C4), hexanoate (C6), octanoate (C8), decanoate (C10), dodecanoate (C12), myristate (C14) and palmitate (C16)]. The reactions were performed in buffer containing 50 mM Tris-HCl PH 8.0 and 0.3% (v/v) Triton X-100 at 22° C.
The activity of all esterase hits was determined via hydrolysis of p-nitrophenol (p-NP) carboxylesterase by monitoring the release of p-nitrophenol. The amount of p-nitrophenol released was quantified by absorbance at 405 nm (εpNP=17,000 M−1.cm−1) using a Spectramax 190 microplate reader (Molecular Devices). Unless otherwise indicated, the measurements were performed at 22° C. in triplicate using 96-well plates with a final assay volume of 100 μL in 50 mM Tris-HCl pH 8.0 and 0.3% (v/v) triton X-100. The substrate specificity was investigated by measuring the hydrolysis of the following p-NP-fatty acyl esters: butyrate (C4), hexanoate (C6 from TCI Chemicals, H0484), octanoate (C8), decanoate (C10), dodecanoate (C12), myristate (C14) and palmitate (C16). The kinetic parameters for each substrate were obtained by non-linear regression of the data using the Michaelis-Menten equation: V=Vmax*[S]/(Km+[S]), where V is the rate, Vmax is the maximum rate achieved by the reaction, S is the substrate concentration, and Km is the Michaelis-Menten constant. The effect of the pH was evaluated by measuring the enzyme activity at pH 4.0 to 11.0 in 50 mM of the following buffers containing 0.3% (v/v) triton X-100: sodium citrate at pH 4.0, pH 5.0 and 6.0; phosphate at pH 6.0, 7.0, 8.0; Tris-HCl at pH 7.0, 8.0 and 9.0; N-cyclohexyl-3-aminopropanesulfonic acid (CAPS) at pH 9.5, 10.0, 11.0.
The enzyme activity of purified RR11O2, Bla-CI5En2 and IsPETase was tested against different p-NP acyl esters [acetate (C2), butyrate (C4), hexanoate (C6), octanoate (C8), decanoate (C10), dodecanoate (C12) and myristate (C14)]. The final enzyme concentration of the enzymes in the reaction depended on the p-NP acyl ester used as substrate. Kinetics were measured at enzyme concentrations of RR11O2, Bla-CI5En2 and IsPETase between 31.25 μM to 23.2 μM, 2.5 nM to 50 nM, and 50 nM to 4.8 μM, respectively. The p-NP acyl ester substrates were used in a concentration range between 0 and 4 mM. The kinetic parameters Vmax and Km were calculated using Kaleidagraph by non-linear lest square fits of initial rates to the Michaelis-Menten equation. […] The released p-nitrophenol was monitored spectro-photometrically at 405 nm (εpNP=18.300 M−1.cm−1) by taking time points in 20 second intervals in a SpectraMax® M3 Microplate Reader (Molecular Devices).

[1] = Enzymatic degradation of PET (nanoparticles, film), HPLC of released TPA and MHET
Source text: (A) Sequence network of currently known PETases and a novel esterase metagenomic-derived, RR11O2. […] Grey nodes represent sequences extracted from MGnify and NCBI. Red node represents RR11O2, blue nodes represent known PETases, green and orange nodes represent reported cutinases and esterases showing PET activity, respectively, and light blue nodes represent described polyester degrading enzymes in the literature. To putatively characterise sequence clusters, the identification of PETases, cutinases, esterases and RR11O2 in the network helped to define the potential clusters. The cluster of RR11O2, CI5En2 and PETase are written in grey. (B) PET hydrolases catalyze the depolymerization of poly(ethylene terephthalate) (PET) to bis(2-hydroxyethyl) terephthalate (BHET), mono(2-hydroxyethyl)-terephthalic (MHET) or terephthalic acid (TPA) and ethylene glycol (EG). During characterizations via high-performance liquid chromatography (HPLC) MHET and TPA have been identified as main products. […] Absorbance at 250 nm was monitored.
(A) Enrichment of variants with higher activity compared to wildtype after sorting the ep-PCR library of CI5En2. […] Amount of the released monomers TPA and MHET was determined via HPLC and corresponding standard curves for TPA and MHET. […]
HPLC analysis of the products released after one week incubation at 30° C. using 6 μM pExp-bla-CI5En2-WT. Absorbance at 250 nm was monitored which detects released TPA and MHET.
To detect the release of TPA, MHET and BHET in the presence of various enzymes, aliquots were taken from reaction mixtures, turnover was stopped by addition of an equal volume of methanol containing 0.5% formic acid, centrifuged (16,100×g, 15 min) and analysed by HPLC (1260 Infinity II, Agilent; Nucleodur C18 analytical EC standard column (5 μm, 4×125 mm, Macherey-Nagel, Germany). As the mobile phase mixtures of buffer A (0.1% formic acid in distilled water) and buffer C (distilled water), as well as buffer D (acetonitrile) were used at a flow rate of 1 mL/min. Buffer A was kept at 20% for the whole run. […]

Row | Molecule | Km (N20O1) | kcat (N20O1) | Km (RR11O2) | kcat (RR11O2) | promiscuous activity on PET [1]
1 | CC(=O)Oc1ccc([N+](=O)[O-])cc1 [Substrate 3a, p-NP acetate] | 3.8 mM | 520 s⁻¹ | 30 mM | 390 s⁻¹ | 
2 | CCCC(=O)Oc1ccc([N+](=O)[O-])cc1 [Substrate 3b, p-NP butyrate] | 2.2 mM | 630 s⁻¹ | 2.2 mM | 46 s⁻¹ | 
3 | CCCCCC(=O)Oc1ccc([N+](=O)[O-])cc1 [Substrate 3c, p-NP hexanoate] | 1.4 mM | 250 s⁻¹ | 0.72 mM | 35 s⁻¹ | 
4 | CCCCCCCC(=O)Oc1ccc([N+](=O)[O-])cc1 [Substrate 3d, p-NP octanoate] | 1.1 mM | 370 s⁻¹ | 0.37 mM | 11 s⁻¹ | 
5 | CCCCCCCCCC(=O)Oc1ccc([N+](=O)[O-])cc1 [Substrate 3e, p-NP decanoate] | 1.5 mM | 31 s⁻¹ | 2 mM | 5.4 s⁻¹ | 
6 | CCCCCCCCCCCC(=O)Oc1ccc([N+](=O)[O-])cc1 [Substrate 3f, p-NP dodecanoate] | 2 mM | 0.5 s⁻¹ | 2.8 mM | 0.78 s⁻¹ | 
7 | CCCCCCCCCCCCCC(=O)Oc1ccc([N+](=O)[O-])cc1 [Substrate 3g, p-NP myristate] | 4.4 mM | 0.042 s⁻¹ | 1.5 mM | 0.039 s⁻¹ | 
8 | CCCCCCCCCCCCCCCC(=O)Oc1ccc([N+](=O)[O-])cc1 [Substrate 3h, p-NP palmitate] | 4.8 mM | 0.016 s⁻¹ | 7.4 mM | 0.017 s⁻¹ | 
9 | B1 |  |  |  |  | exhibits promiscuous activity on PET
